We go through 18 compounds from ChEMBL document CHEMBL4673406, “Discovery and Preclinical Evaluation of BMS-986242, a Potent, Selective Inhibitor of Indoleamine-2,3-dioxygenase 1” (ACS Med Chem Lett, 2021).

The nature of data set [1]: in vitro. The following applies: mouse, liver microsomes. (Microsomes from liver hold many membrane-bound enzymes, among them those of drug oxidation.)
Description: Metabolic stability in mouse liver microsomes assessed as parent compound remaining at 0.5 uM measured after 10 mins
The target in data set [2] is T1, Indoleamine 2,3-dioxygenase 1 (Homo sapiens, UniProt P14902). In words: Inhibition of IDO1 in IFNgamma/LPS-stimulated human whole blood preincubated for 4 hrs followed by IFNgamma/LPS stimulation and incubated for 18 hrs by Rapid-fire mass spectrometry analysis. It counts as tissue-based.
T1 sequence (P14902 whole entry): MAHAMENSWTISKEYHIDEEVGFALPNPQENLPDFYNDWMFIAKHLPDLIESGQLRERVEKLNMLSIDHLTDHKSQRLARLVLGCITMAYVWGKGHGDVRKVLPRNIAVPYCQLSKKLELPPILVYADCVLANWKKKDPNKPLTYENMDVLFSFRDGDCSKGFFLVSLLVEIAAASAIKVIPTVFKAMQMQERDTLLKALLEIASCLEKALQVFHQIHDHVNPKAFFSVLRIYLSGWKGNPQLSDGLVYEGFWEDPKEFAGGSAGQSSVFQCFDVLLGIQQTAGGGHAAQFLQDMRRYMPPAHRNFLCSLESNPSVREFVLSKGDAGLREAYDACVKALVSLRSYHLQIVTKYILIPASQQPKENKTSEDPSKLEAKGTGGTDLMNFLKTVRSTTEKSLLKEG
Data set [3] can be described thus: in vitro. As to conditions: human, liver microsomes.
Description: Metabolic stability in human liver microsomes assessed as parent compound remaining at 0.5 uM measured after 10 mins
In data set [4] the target is Indoleamine 2,3-dioxygenase 1 (Mus musculus, UniProt P28776). In words: Inhibition of IDO1 in IFNgamma-stimulated mouse M109 cells preincubated for 2 hrs followed by IFNgamma stimulation and measured after 18 hrs by. It counts as cell-based.
Sequence of Indoleamine 2,3-dioxygenase 1 (Mus musculus, UniProt P28776) (P28776 whole entry): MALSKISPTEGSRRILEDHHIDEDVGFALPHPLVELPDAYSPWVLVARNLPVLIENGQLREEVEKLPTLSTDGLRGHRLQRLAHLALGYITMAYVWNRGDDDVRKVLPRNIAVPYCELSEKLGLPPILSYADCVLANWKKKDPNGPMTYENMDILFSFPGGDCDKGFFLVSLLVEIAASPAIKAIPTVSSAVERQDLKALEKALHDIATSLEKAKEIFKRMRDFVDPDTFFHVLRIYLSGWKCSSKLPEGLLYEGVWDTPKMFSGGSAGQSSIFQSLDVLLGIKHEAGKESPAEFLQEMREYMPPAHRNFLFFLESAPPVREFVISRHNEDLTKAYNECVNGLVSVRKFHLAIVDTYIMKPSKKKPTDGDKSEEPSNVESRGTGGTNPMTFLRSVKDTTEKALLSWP
Data set [5] in a line: Aqueous solubility of the compound at pH 6.5. Format: physicochemical. As to conditions: buffer.
Data set [6] has as its target T1, Indoleamine 2,3-dioxygenase 1. In words: Inhibition of IDO1 in IFNgamma-stimulated human HeLa cells preincubated for 2 hrs followed by IFNgamma stimulation and measured after 18 hrs by.
Data set [7] addresses Indoleamine 2,3-dioxygenase 1 (Mus musculus) (UniProt P28776). In words: In vivo inhibition of IDO1 in nu/nu mouse xenografted with human SK-OV-3 cells assessed as reduction in kynurenine level at 60 mg/kg, po qd by HPLC-MS/MS analysis relative to control. Format: functional, organism-based. On the technique in general: In xenograft studies the graft and the host belong to different species.

A short description of the next data set: in vivo. As to conditions: nu/nu, mouse, tumor, po, 60 mg/kg.
The nature of data set [8]: AUC (0 to 24 hrs) in nu/nu mouse xenografted with human SK-OV-3 cells measured in tumor at 100 mg/kg, po bid by uHPLC-MS/MS analysis. Format: ADME, organism-based. The arrangement: time < 24 hr, route oral, dose 100 mg/kg.
Data set [9] can be described thus: Solubility of the compound at pH 6.5 to 7.4. The following applies: buffer. It counts as physicochemical.

Sequence of Indoleamine 2,3-dioxygenase 1 (Mus musculus) (P28776 whole entry, looked up): as the sequence (P28776 whole entry) above
Description for in vivo: AUC (0 to 24 hrs) in nu/nu mouse xenografted with human SK-OV-3 cells measured in tumor at 60 mg/kg, po qd by uHPLC-MS/MS analysis

Usually share remaining stands for what is left of the initial amount, in per cent. As a reminder, the IC50 is the concentration that gives 50% inhibition. Read a high IC50 as lower potency. What is called solubility is the dissolved amount per volume that the medium holds. `COc1ccc(C(=O)N[C@H](C)[C@H]2CC[C@@H](c3ccnc4ccc(F)cc43)CC2)cc1N1CCOCC1`: the share remaining at 10 min, 0.5 µM in “in vitro [1]” turned out to be 4%; in the data set “in vitro [3]” it was 2%. Moreover, the results for the IC50 in [2], in data set [4] and in data set [6] were 35 nM, 20 nM and 7 nM, respectively. The same compound had a solubility in data set [5] below 1 µg/mL.

As usually defined, the inhibition is the change of the read-out against control, counted positive when it falls. What is called AUC is the area under the concentration-time curve, a measure of exposure. `C[C@@H](C(=O)Nc1ccc(Cl)cc1)[C@H]1CC[C@@H](c2ccnc3ccc(F)cc32)CC1`: the values for the share remaining at 10 min, 0.5 µM in “in vitro [1]” and in “in vitro [3]” were 31% and 84%, respectively. In [7], the inhibition was found to be 61%. The compound further had an AUC at 24 h in the data set “in vivo” of 34.9 µM·h.

`C[C@@H](NC(=O)c1ccccc1Cl)[C@H]1CC[C@@H](c2ccnc3ccc(F)cc32)CC1`: the results for the amount remaining at 10 min, 0.5 µM in “in vitro [1]” and in the data set “in vitro [3]” were 7% and 21%, respectively. Also, the IC50 came to 135 nM in data set [2], 215 nM in data set [4] and 12 nM in [6].

For `C[C@@H](NCc1ccc(Cl)cc1)[C@H]1CC[C@@H](c2ccnc3ccc(F)cc32)CC1`, the values for the share remaining at 10 min, 0.5 µM in “in vitro [1]” and in the data set “in vitro [3]” were 2% and 34%, respectively. Besides, the IC50 in data set [2] is above 1000 nM; in data set [4] it was above 1000 nM; in data set [6], 745 nM.

Consider `C[C@@H](NS(=O)(=O)c1ccc(Cl)cc1)[C@H]1CC[C@@H](c2ccnc3ccc(F)cc32)CC1`, for which the share remaining at 10 min, 0.5 µM was below 1% in the data set “in vitro [1]” and 29% in “in vitro [3]”. The results for the IC50 in [2], in [4] and in data set [6] were 484 nM, above 1000 nM and above 1000 nM, respectively.

With `C[C@H](NC(=O)[C@H](C)[C@H]1CC[C@@H](c2ccnc3ccc(F)cc32)CC1)c1ccc(Cl)cc1`, the fraction remaining at 10 min, 0.5 µM in the data set “in vitro [1]” was found to be 5%; in the data set “in vitro [3]”, 19%. The values for the half-inhibitory concentration (IC50) in data set [2], in data set [4] and in data set [6] were above 1000 nM, 870 nM and 67 nM, respectively.

On to `COc1ncc(NC(=O)[C@H](C)[C@H]2CC[C@@H](c3ccnc4ccc(F)cc43)CC2)cn1`, for which the share remaining at 10 min, 0.5 µM in “in vitro [1]” was determined as 51%; in the data set “in vitro [3]”, 73%. Moreover, the figures for the half-maximal inhibitory concentration (IC50) in data set [2], in [4] and in [6] were 80 nM, 92 nM and 10 nM, respectively.

In data set [8], `NS(=O)(=O)NCCNc1nonc1C(=NO)Nc1ccc(F)c(Br)c1` [EPACADOSTAT] gave an AUC at 24 h of 48 µM·h.

For the compound `C[C@@H](CNc1ccc(Cl)cc1)[C@H]1CC[C@@H](c2ccnc3ccc(F)cc32)CC1`, the amount remaining at 10 min, 0.5 µM in “in vitro [1]” and in the data set “in vitro [3]” was 80% throughout. In addition, the IC50 in data set [2] was 44 nM; in data set [4], 62 nM; in data set [6] it was 7 nM.

For `C[C@@H](NC(=O)Nc1ccc(Cl)cc1)[C@H]1CC[C@@H](c2ccnc3ccc(F)cc32)CC1`, the share remaining at 10 min, 0.5 µM was 14% in the data set “in vitro [1]” and 52% in “in vitro [3]”. In addition, the IC50 in data set [2] came to 280 nM; in data set [4] it was 67 nM; in data set [6], 20 nM.

With `C[C@@H](NC(=O)C12CCC(Cl)(CC1)CC2)[C@H]1CC[C@@H](c2ccnc3ccc(F)cc32)CC1`, the fraction remaining at 10 min, 0.5 µM in the data set “in vitro [1]” amounted to 10%; in the data set “in vitro [3]” it was 9%. In addition, the IC50 in data set [2] is 579 nM; in data set [4], 56 nM.

As to `C[C@@H](c1nc2ccc(Cl)cc2[nH]1)[C@H]1CC[C@@H](c2ccnc3ccc(F)cc32)CC1`, the figures for the share remaining at 10 min, 0.5 µM in the data set “in vitro [1]” and in “in vitro [3]” were 12% and 48%, respectively. Further, the values for the IC50 in data set [2], in data set [4] and in [6] were 28 nM, 12 nM and 4 nM, respectively.

`C[C@@H](NC(=O)C1CCCCC1)[C@H]1CC[C@@H](c2ccnc3ccc(F)cc32)CC1`: the fraction remaining at 10 min, 0.5 µM turned out to be 5% in “in vitro [1]” and 6% in the data set “in vitro [3]”. For the same compound, the IC50 worked out at 294 nM in [2], 86 nM in data set [4] and 12 nM in [6].

In the case of `C[C@@H](NC(=O)c1cccc(Cl)c1)[C@H]1CC[C@@H](c2ccnc3ccc(F)cc32)CC1`, the share remaining at 10 min, 0.5 µM in “in vitro [1]” came to 9%; in the data set “in vitro [3]”, 39%. In addition, the IC50 in data set [2] was 97 nM; in [4], 48 nM; in data set [6], 7 nM.

With `C[C@@H](NC(=O)c1ccc(-c2ccccc2)cc1)[C@H]1CC[C@@H](c2ccnc3ccc(F)cc32)CC1`, the amount remaining at 10 min, 0.5 µM in “in vitro [1]” amounted to 70%; in “in vitro [3]”, 59%. The compound further yielded a solubility in [9] below 1 µg/mL. Besides, the half-inhibitory concentration (IC50) in [2] is 22 nM; in data set [4] it was 3 nM; in [6], 2 nM.

Take `C[C@@H](NC(=O)Cc1ccc(Cl)cc1)[C@H]1CC[C@@H](c2ccnc3ccc(F)cc32)CC1`: the share remaining at 10 min, 0.5 µM in the data set “in vitro [1]” turned out to be 2%; in the data set “in vitro [3]”, 8%. The values for the IC50 in [2], in data set [4] and in [6] were 779 nM, 651 nM and 125 nM, respectively.

Turning to `C[C@@H](CNC(=O)c1ccc(Cl)cc1)[C@H]1CC[C@@H](c2ccnc3ccc(F)cc32)CC1`, the fraction remaining at 10 min, 0.5 µM in the data set “in vitro [1]” was determined as 32%; in the data set “in vitro [3]” it was 56%. In addition, the results for the IC50 in data set [2], in data set [4] and in [6] were 158 nM, 772 nM and 261 nM, respectively.

For `C[C@@H](C(=O)NC1CCCCC1)[C@H]1CC[C@@H](c2ccnc3ccc(F)cc32)CC1`, the amount remaining at 10 min, 0.5 µM in the data set “in vitro [1]” and in the data set “in vitro [3]” was below 1% throughout. Further, the results for the IC50 in data set [2], in data set [4] and in [6] were 470 nM, 287 nM and 18 nM, respectively.
